The values below are quoted from earlier work in PMC6101361 (PLoS ONE, 2018).

For this series, the system named is anti-ß1EC2-induced heart failure in rats. To be noted: daily applications; ref [20]. An excerpt:
The observed trend to ...

As for `CC(C)NCC(O)COc1ccc(COCCOC(C)C)cc1` (stereo not shown) [bisoprolol], the “effect on anti-ß1EC2–induced heart failure” value is listed as “only delayed progression of anti-ß1EC2–induced heart failure”.
